Test results: patent US20090197955A1, “METHODS OF IMPROVING DHA DEPOSITION AND RELATED FUNCTION AND/OR DEVELOPMENT” (Monsanto Company, priority 2008, published 2009)

Assay: Fatty acid composition of pig tissues (ham, loin, belly, skin) after feeding SDA ethyl ester diets, 35 day study
Format: in vivo, pigs
Conditions: 35 days
Method: A 35 day study was conducted to determine whether pigs fed a diet containing SDA could enhance tissues with improved fatty acid profiles including increased levels of SDA, EPA, and DHA.
Four test diets (Treatment 2, 3, 4, and 5) with SDA ethyl ester substituted for corn oil to provide 0.2, 0.4, 0.6 and 0.8% (w/w SDA active ingredient, as-is basis) were fed ad libitum to one pen of four pigs throughout the 35-day test period Table 4). All diets were fed in meal form. Treatment 6 was fed the same diet as Treatment 5, but for a duration of only 21 days.
All pigs were individually weighed at initiation of the acclimation and test period, and immediately prior to slaughter. Feed consumption per pen was recorded. Upon completion of the feeding period, pigs were slaughtered for tissue collection and carcass evaluation. Pigs were slaughtered using standard industry practices (electrical stunning, exsanguinations, scalding, dehairing and evisceration). Live weights prior to slaughter and hot carcass weights were recorded. The left side of each carcass was fabricated and samples were obtained from the loin (longissimus muscle), ham (semimembranosus muscle) and belly (a section from the center of the belly) for sensory evaluation, fatty acid, and proximate analysis. Prior to removing the sample for sensory and fatty and proximate analysis from the belly the firmness of the belly was evaluated using a flop test. At 24 hr postmortem fat thickness (10th rib), loin eye area (10th rib), visual color, firmness and marbling, Minolta color (L*a*b*), pH, and drip loss were measured.
In order to evaluate the fatty acid composition of pig tissues (loin, ham, skin, and belly), samples were stored at −80° C. until evaluation. After thawing, ˜22 g of fresh pig tissue was chopped into small pieces and thoroughly mixed before 10 g was sub sampled and lyophilized. Lyophilized samples were ground in 30 ml Sarstedt tubes with two ball bearings using a Mega Grinder. Ground samples (loin and ham: 50 mg; skin: 100 mg; belly: 150 mg; diet: 500 mg) were directly methylated with sulfuric acid in methanol (loin and ham: 1 mL; skin: 3 mL; belly: 10 mL; diet: 1.5 mL) sealed in the presence of butylated hydroxytoluene (50 mg BHT in 100 ml reagent) in reflux conditions of 90° C. Resultant fatty acid methyl esters (FAME's) were separated by capillary gas chromatography (GC) and detected by flame ionization detector (FID). The column used was a Supelco Omegawax 250 capillary column with dimensions of 30 m×0.25 mm×0.25 μm film thickness. The run time was 32 minutes. Peaks were identified based on their relative retention time compared to a FAME reference mixture. Quantification was achieved by using an internal standard (c15:0 triacylglyceride (TAG) for pig tissue samples and c17:0 TAG for diet samples). Results are reported as FA g/100 g fat with theoretical response correction.
For Table 6 below, each value represents g/100 g total fatty acids a mean of 4 samples (1 sample from each of 4 pigs) per treatment.

With CC/C=C\C/C=C\C/C=C\C/C=C\CCCCC(=O)O [SDA, stearidonic acid] the “24:1 n-9, ham” value (0.4% SDA feed) was 0.05 g FA per 100 g fat, the “Total PUFA, ham” value (0.4% SDA feed) was 13.34 g FA per 100 g fat and the “Total monoenes, ham” value (0.4% SDA feed) was 48.71 g FA per 100 g fat. The “Total n-3, ham” value (0.4% SDA feed) was 1.23 g FA per 100 g fat, the “Total n-6, ham” value (0.4% SDA feed) was 12.11 g FA per 100 g fat and the “Total saturates, ham” value (0.4% SDA feed) was 33.55 g FA per 100 g fat. The “n-6/n-3, ham” value (0.4% SDA feed) was 9.85, the “12:0, ham” value (0.6% SDA feed) was 0.06 g FA per 100 g fat and the “14:0, ham” value (0.6% SDA feed) was 1.05 g FA per 100 g fat. The “16:0, ham” value (0.6% SDA feed) was 21.49 g FA per 100 g fat, the “16:1 n-7, ham” value (0.6% SDA feed) was 3.03 g FA per 100 g fat and the “16:1 n-9, ham” value (0.6% SDA feed) was 0.26 g FA per 100 g fat. For the same compound, the “18:0, ham” value (0.6% SDA feed) was 11.47 g FA per 100 g fat, the “18:1 n-7, ham” value (0.6% SDA feed) was 4.08 g FA per 100 g fat and the “18:1 n-9, ham” value (0.6% SDA feed) was 37.64 g FA per 100 g fat. The “18:2 n-6 (LA), ham” value (0.6% SDA feed) was 9.92 g FA per 100 g fat, the “18:3 n-3 (ALA), ham” value (0.6% SDA feed) was 0.22 g FA per 100 g fat and the “18:3 n-6 (GLA), ham” value (0.6% SDA feed) was 0.14 g FA per 100 g fat. The “18:4 n-3 (SDA), ham” value (0.6% SDA feed) was 0.16 g FA per 100 g fat, the “20:0, ham” value (0.6% SDA feed) was 0.16 g FA per 100 g fat and the “20:1 n-7, ham” value (0.6% SDA feed) was 0.04 g FA per 100 g fat. For the same compound, the “20:1 n-9, ham” value (0.6% SDA feed) was 0.59 g FA per 100 g fat, the “20:1 n-11, ham” value (0.6% SDA feed) was 0.03 g FA per 100 g fat and the “20:2 n-6, ham” value (0.6% SDA feed) was 0.28 g FA per 100 g fat. For the same compound, the “20:3 n-3, ham” value (0.6% SDA feed) was 0.04 g FA per 100 g fat, the “20:3 n-6 (DGLA), ham” value (0.6% SDA feed) was 0.43 g FA per 100 g fat and the “20:4 n-3 (ETA), ham” value (0.6% SDA feed) was 0.26 g FA per 100 g fat. For the same compound, the “20:4 n-6 (AA), ham” value (0.6% SDA feed) was 2.60 g FA per 100 g fat, the “20:5 n-3 (EPA), ham” value (0.6% SDA feed) was 0.54 g FA per 100 g fat and the “22:0, ham” value (0.6% SDA feed) was 0.07 g FA per 100 g fat. For the same compound, the “22:1 n-9, ham” value (0.6% SDA feed) was 0.00 g FA per 100 g fat, the “22:1 n-11, ham” value (0.6% SDA feed) was 0.00 g FA per 100 g fat and the “22:1 n-13, ham” value (0.6% SDA feed) was 0.00 g FA per 100 g fat. The “22:2 n-7, ham” value (0.6% SDA feed) was 0.00 g FA per 100 g fat, the “22:3 n-6, ham” value (0.6% SDA feed) was 0.24 g FA per 100 g fat and the “22:5 n-3 (DPA), ham” value (0.6% SDA feed) was 0.67 g FA per 100 g fat. The “22:6 n-3 (DHA), ham” value (0.6% SDA feed) was 0.10 g FA per 100 g fat, the “24:1 n-9, ham” value (0.6% SDA feed) was 0.06 g FA per 100 g fat and the “Total PUFA, ham” value (0.6% SDA feed) was 15.59 g FA per 100 g fat. The “Total monoenes, ham” value (0.6% SDA feed) was 45.72 g FA per 100 g fat, the “Total n-3, ham” value (0.6% SDA feed) was 1.99 g FA per 100 g fat and the “Total n-6, ham” value (0.6% SDA feed) was 13.60 g FA per 100 g fat. The “Total saturates, ham” value (0.6% SDA feed) was 34.30 g FA per 100 g fat, the “n-6/n-3, ham” value (0.6% SDA feed) was 6.83 and the “12:0, ham” value (0.8% SDA feed) was 0.05 g FA per 100 g fat. The “14:0, ham” value (0.8% SDA feed) was 0.96 g FA per 100 g fat, the “16:0, ham” value (0.8% SDA feed) was 20.70 g FA per 100 g fat and the “16:1 n-7, ham” value (0.8% SDA feed) was 2.90 g FA per 100 g fat. For the same compound, the “16:1 n-9, ham” value (0.8% SDA feed) was 0.53 g FA per 100 g fat, the “18:0, ham” value (0.8% SDA feed) was 11.25 g FA per 100 g fat and the “18:1 n-7, ham” value (0.8% SDA feed) was 4.27 g FA per 100 g fat. The “18:1 n-9, ham” value (0.8% SDA feed) was 35.19 g FA per 100 g fat, the “18:2 n-6 (LA), ham” value (0.8% SDA feed) was 11.90 g FA per 100 g fat and the “18:3 n-3 (ALA), ham” value (0.8% SDA feed) was 0.25 g FA per 100 g fat. The “18:3 n-6 (GLA), ham” value (0.8% SDA feed) was 0.21 g FA per 100 g fat, the “18:4 n-3 (SDA), ham” value (0.8% SDA feed) was 0.24 g FA per 100 g fat and the “20:0, ham” value (0.8% SDA feed) was 0.13 g FA per 100 g fat. The “20:1 n-7, ham” value (0.8% SDA feed) was 0.04 g FA per 100 g fat, the “20:1 n-9, ham” value (0.8% SDA feed) was 0.52 g FA per 100 g fat and the “20:1 n-11, ham” value (0.8% SDA feed) was 0.03 g FA per 100 g fat. The “20:2 n-6, ham” value (0.8% SDA feed) was 0.27 g FA per 100 g fat, the “20:3 n-3, ham” value (0.8% SDA feed) was 0.03 g FA per 100 g fat and the “20:3 n-6 (DGLA), ham” value (0.8% SDA feed) was 0.50 g FA per 100 g fat. The “20:4 n-3 (ETA), ham” value (0.8% SDA feed) was 0.29 g FA per 100 g fat, the “20:4 n-6 (AA), ham” value (0.8% SDA feed) was 3.12 g FA per 100 g fat and the “20:5 n-3 (EPA), ham” value (0.8% SDA feed) was 0.87 g FA per 100 g fat. For the same compound, the “22:0, ham” value (0.8% SDA feed) was 0.10 g FA per 100 g fat, the “22:1 n-9, ham” value (0.8% SDA feed) was 0.00 g FA per 100 g fat and the “22:1 n-11, ham” value (0.8% SDA feed) was 0.00 g FA per 100 g fat. The “22:1 n-13, ham” value (0.8% SDA feed) was 0.00 g FA per 100 g fat and the “22:2 n-7, ham” value (0.8% SDA feed) was 0.00 g FA per 100 g fat.
